Laboratory results taken from publication PMC8163145 (Chemical Science, 2020).

How the values were obtained:
[1] = test system: LHPP; settings: pH 8.2, in the presence of 1 mM MgCl2; LHPP isolated from bovine liver; cited from earlier work
[2] = 60 °C, neutral pH; cited from earlier work
[3] = molecular target: T1, LHPP (Homo sapiens, UniProt Q9H008); type: biochemical
T1 sequence (Q9H008 1-270): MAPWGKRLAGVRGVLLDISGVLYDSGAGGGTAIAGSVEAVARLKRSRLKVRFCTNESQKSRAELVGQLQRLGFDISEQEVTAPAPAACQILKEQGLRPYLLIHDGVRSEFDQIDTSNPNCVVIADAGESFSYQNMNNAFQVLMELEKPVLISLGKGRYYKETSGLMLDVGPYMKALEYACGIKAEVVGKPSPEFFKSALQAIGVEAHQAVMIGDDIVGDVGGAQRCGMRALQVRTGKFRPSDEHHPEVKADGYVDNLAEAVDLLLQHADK

| Compound | released phosphate (LHPP activity) [1] [µmol/min/mg] | half-life time [2] | enzymatically hydrolyzed substrate ([3]; 100 μM 1a, 0.25 μg LHPP, 200 μL, after 60 minutes, background subtracted) | hydrolysis rate by LHPP ([3]; 100 μM substrate, 200 μL 50 mM Tris–HCl, 1 mM MgCl2, pH 7.8, 0.25 μg LHPP (0.037 μM)) [µmol/min/mg] |
| --- | --- | --- | --- | --- |
| O=P(O)(O)NP(=O)(O)O [PNP, imidodiphosphate] | 0.44 | – | – | – |
| O=P(O)(O)OP(=O)(O)O [PPi, pyrophosphate] | 0.11 | – | – | – |
| N[C@@H](CCCCNP(=O)(O)O)C(=O)O [Substrate 1a, N6-phosphono-L-lysine] | – | less than 1 h | roughly 50% | 0.88 |
